Results published in patent US20260226073A1 (AURIGENE ONCOLOGY LIMITED, priority 2023, published 2026).

Key:
[1] = biological target: T1, human recombinant CBL-b (human Biotin CBL-b recombinant protein a.a. 39-426) (Homo sapiens, UniProt Q13191); experiment: Biochemical assay for CBL-b inhibition (ligand displacement TR-FRET); type: binding; conditions: 50 nM CBL-b, 0.3 μM Bodipy FL-Probe, read-out: IC50 (CBL-b inhibition, group)
T1 construct: human Biotin CBL-b recombinant protein a.a; 39-426; Biotin (biotinylated); made in house
Summary of the method: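 Ligand-displacement TR-FRET: 0.3 μM Bodipy FL probe competes with compound for 50 nM biotin-CBL-b (aa 39-426) after a 60 min RT compound pre-incubation; terbium-streptavidin detection, 60 min each step. Dose-response sigmoidal fitting gave IC50 and % maximum inhibition.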

[2] = tested on: NFAT signaling pathway in Jurkat NFAT reporter cells; experiment: Jurkat NFAT reporter assay; type: cell-based; conditions: Homo sapiens, 30 min with compound, then soluble anti-human CD3/CD28 antibody for 6 hours, luciferase readout, read-out: EC50 (Group)
Summary of the method: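 Results are expressed as fold change relative to stimulated, inhibitor-free cells. Stimulation was 6 h with soluble anti-human CD3/CD28 antibody after a 30-min exposure of 1×10^5 NFAT-RE luciferase Jurkat reporter cells per well to the Cbl-b inhibitor; signal read by Bio-Glo bioluminescence.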

[3] = tested on: human PBMCs stimulated with anti-CD3/CD28 Dynabeads; experiment: Human PBMC cytokine release assay (IL-2 by ELISA); type: cell-based; conditions: Dynabeads CD3/CD28 48 hours, IL-2 ELISA, fold change over baseline, read-out: EC50 (human PBMC cytokine release, group)
Protocol: Peripheral blood mononuclear cells (PBMC) were isolated from healthy human donor using Histopaque (Sigma). The Cbl-inhibitor was added to 1×10^5 cells per well and the plate was incubated for 30 minutes at 37° C. in 5% CO2 at different concentrations with a final DMSO concentration of <0.5%. Following incubation with the Cbl-b inhibitor, human PBMCs were stimulated with Dynabeads™ Human T-Activator CD3/CD28 (Thermo Fisher Scientific) for 48 hours. Cell free supernatant were collected after end of incubation and were analyzed for cytokine secretion, including IL-2 by ELISA (R&D Systems). Readouts were reported as fold change over baseline. Here, baseline was the measurement obtained from human PBMCs stimulated with Dynabeads™ Human T-Activator CD3/CD28, where the cells were not incubated with a Cbl-b inhibitor.

T1 sequence (Q13191 39-426): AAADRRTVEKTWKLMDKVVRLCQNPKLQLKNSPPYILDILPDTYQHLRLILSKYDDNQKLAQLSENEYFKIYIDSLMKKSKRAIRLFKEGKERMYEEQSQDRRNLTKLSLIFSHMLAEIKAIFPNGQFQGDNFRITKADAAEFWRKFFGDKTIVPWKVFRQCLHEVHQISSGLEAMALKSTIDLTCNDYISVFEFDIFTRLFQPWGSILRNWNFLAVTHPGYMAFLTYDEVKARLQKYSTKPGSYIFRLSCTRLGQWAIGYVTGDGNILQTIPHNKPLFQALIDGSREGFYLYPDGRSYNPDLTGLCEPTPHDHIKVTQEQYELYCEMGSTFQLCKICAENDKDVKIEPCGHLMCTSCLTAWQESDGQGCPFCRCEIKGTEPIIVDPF

C[C@H]1CCCN(Cc2cc(N3Cc4ccc(C5(Cc6nncn6C)COC5)cc4C3=O)cc(C(F)(F)F)c2)C1 [Compound 1, (S)-6-(3-((4-Methyl-4H-1,2,4-triazol-3-yl)methyl)oxetan-3-yl)-2-(3-((3-methylpiperidin-1-yl)methyl)-5-(trifluoromethyl)phenyl)isoindolin-1-one] was tested, and the IC50 [1] was 0.08 to 0.3 µM, the EC50 [2] was less than 0.3 µM and the EC50 [3] was less than 5 µM.

C[C@H]1CCCN(Cc2cc(N3Cc4ccc(C5(Cc6nncn6C)COC5)cc4C3=O)nc(C(F)(F)F)c2)C1 [Compound 2] gave an IC50 [1] of less than 0.08 µM, an EC50 [2] of less than 0.3 µM and an EC50 [3] of less than 5 µM.

Cc1cc(CN2CCC[C@H](C)C2)cc(N2Cc3ccc(C4(Cc5nncn5C)COC4)cc3C2=O)c1 [Compound 4, (S)-6-(3-((4-Methyl-4H-1,2,4-triazol-3-yl)methyl)oxetan-3-yl)-2-(3-methyl-5-((3-methylpiperidin-1-yl)methyl)phenyl)isoindolin-1-one] was tested, and the IC50 [1] was less than 0.08 µM, the EC50 [2] was less than 0.3 µM and the EC50 [3] was less than 5 µM.

For C[C@H]1CCCN(Cc2cc(Cl)cc(N3Cc4ccc(C5(Cc6nncn6C)COC5)cc4C3=O)c2)C1 [Compound 6, (S)-2-(3-Chloro-5-((3-methylpiperidin-1-yl)methyl)phenyl)-6-(3-((4-methyl-4H-1,2,4-triazol-3-yl)methyl)oxetan-3-yl)isoindolin-1-one], the IC50 [1] was less than 0.08 µM, the EC50 [2] was less than 0.3 µM and the EC50 [3] was less than 5 µM.

Work on CCc1cc(CN2CCC[C@H](C)C2)cc(N2Cc3ccc(C4(Cc5nncn5C)COC4)cc3C2=O)c1 [Compound 11, (S)-2-(3-Ethyl-5-((3-methylpiperidin-1-yl)methyl)phenyl)-6-(3-((4-methyl-4H-1,2,4-triazol-3-yl)methyl)oxetan-3-yl)isoindolin-1-one] yielded an IC50 [1] of 0.08 to 0.3 µM, an EC50 [2] of 0.3 to 1 µM and an EC50 [3] of less than 5 µM.

Cc1cc(CNC(C2CC2)C2CC2)cc(N2Cc3ccc(-c4ccc(F)cc4-c4nncn4C)cc3C2=O)n1 [Compound 298, 2-(4-(((Dicyclopropylmethyl)amino)methyl)-6-methylpyridin-2-yl)-6-(4-fluoro-2-(4-methyl-4H-1,2,4-triazol-3-yl)phenyl)isoindolin-1-one] was tested, and the IC50 [1] was less than 0.08 µM and the EC50 [2] was less than 0.3 µM.

Cc1cc(CNCCC(C)C)cc(N2Cc3ccc(-c4ccc(F)cc4-c4nncn4C)cc3C2=O)n1 [Compound 300, 6-(4-Fluoro-2-(4-methyl-4H-1,2,4-triazol-3-yl)phenyl)-2-(4-((isopentylamino)-methyl)-6-methylpyridin-2-yl)isoindolin-1-one] showed an IC50 [1] of less than 0.08 µM and an EC50 [2] of 0.3 to 1 µM.

For COCCNCc1cc(C)nc(N2Cc3ccc(-c4ccc(F)cc4-c4nncn4C)cc3C2=O)c1 [Compound 302, 6-(4-Fluoro-2-(4-methyl-4H-1,2,4-triazol-3-yl)phenyl)-2-(4-(((2-methoxyethyl)-amino)methyl)-6-methylpyridin-2-yl)isoindolin-1-one], the IC50 [1] was less than 0.08 µM and the EC50 [2] was 0.3 to 1 µM.

Cc1cc(CNCC(C)(C)C)cc(N2Cc3ccc(-c4ccc(F)cc4-c4nncn4C)cc3C2=O)n1 [Compound 303] was tested, and the IC50 [1] was less than 0.08 µM and the EC50 [2] was 0.3 to 1 µM.

Cc1cc(CNCC2CC2)cc(N2Cc3ccc(-c4ccc(F)cc4-c4nccn4C)cc3C2=O)n1 [Compound 304] gave an IC50 [1] of less than 0.08 µM and an EC50 [2] of 1 to 10 µM.

For Cc1cc(CNCC(C)C)cc(N2Cc3ccc(-c4ccc(F)cc4-c4nncn4C)cc3C2=O)n1 [Compound 305], the IC50 [1] was less than 0.08 µM and the EC50 [2] was less than 0.3 µM.

In the case of Cc1cc(CNCCC2CC2)cc(N2Cc3ccc(-c4ccc(F)cc4-c4nncn4C)cc3C2=O)n1 [Compound 307, 2-(4-(((2-Cyclopropylethyl)amino)methyl)-6-methylpyridin-2-yl)-6-(4-fluoro-2-(4-methyl-4H-1,2,4-triazol-3-yl)phenyl)isoindolin-1-one], the IC50 [1] is reported as less than 0.08 µM and the EC50 [2] is reported as less than 0.3 µM.

Cc1cc(CNCC2(CO)CCC2)cc(N2Cc3ccc(-c4ccc(F)cc4-c4nncn4C)cc3C2=O)n1 [Compound 308] showed an IC50 [1] of less than 0.08 µM and an EC50 [2] of 1 to 10 µM.

Cc1cc(CNCC(C)(C)O)cc(N2Cc3ccc(-c4ccc(F)cc4-c4nncn4C)cc3C2=O)n1 [Compound 309, 6-(4-Fluoro-2-(4-methyl-4H-1,2,4-triazol-3-yl)phenyl)-2-(4-(((2-hydroxy-2-methylpropyl)amino)methyl)-6-methylpyridin-2-yl)isoindolin-1-one] gave an IC50 [1] of less than 0.08 µM and an EC50 [2] of less than 0.3 µM.

Molecule [2H]C([2H])([2H])n1cnnc1-c1cc(F)ccc1-c1ccc2c(c1)C(=O)N(c1cc(CNCC3CC3)cc(C)n1)C2 [Compound 310, 2-(4-(((Cyclopropylmethyl)amino)methyl)-6-methylpyridin-2-yl)-6-(4-fluoro-2-(4-(methyl-d3)-4H-1,2,4-triazol-3-yl)phenyl)isoindolin-1-one] has an IC50 [1] of less than 0.08 µM and an EC50 [2] of less than 0.3 µM.

Cc1cc(CNCC2(O)CC2)cc(N2Cc3ccc(-c4ccc(F)cc4-c4nncn4C)cc3C2=O)n1 [Compound 311] gave an IC50 [1] of less than 0.08 µM and an EC50 [2] of 1 to 10 µM.

Work on Cc1cc(CN[C@@H]2CCC[C@H]2O)cc(N2Cc3ccc(-c4ccc(F)cc4-c4nncn4C)cc3C2=O)n1 [Compound 314, 6-(4-Fluoro-2-(4-methyl-4H-1,2,4-triazol-3-yl)phenyl)-2-(4-((((1R,2R)-2-hydroxycyclopentyl)amino)methyl)-6-methylpyridin-2-yl)isoindolin-1-one] yielded an IC50 [1] of less than 0.08 µM and an EC50 [2] of 0.3 to 1 µM.

Cc1cc(CN[C@@H](CO)C(C)C)cc(N2Cc3ccc(-c4ccc(F)cc4-c4nncn4C)cc3C2=O)n1 [Compound 315, (R)-6-(4-Fluoro-2-(4-methyl-4H-1,2,4-triazol-3-yl)phenyl)-2-(4-(((1-hydroxy-3-methylbutan-2-yl)amino)methyl)-6-methylpyridin-2-yl)isoindolin-1-one] showed an IC50 [1] of less than 0.08 µM and an EC50 [2] of less than 0.3 µM.

In the case of Cc1cc(CNCC2(O)CCCC2)cc(N2Cc3ccc(-c4ccc(F)cc4-c4nncn4C)cc3C2=O)n1 [Compound 319, 6-(4-Fluoro-2-(4-methyl-4H-1,2,4-triazol-3-yl)phenyl)-2-(4-((((1-hydroxy-cyclopentyl)methyl)amino)methyl)-6-methylpyridin-2-yl)isoindolin-1-one], the IC50 [1] is reported as less than 0.08 µM and the EC50 [2] is reported as less than 0.3 µM.

Work on Cc1cc(CNCC2CC2)cc(N2Cc3ccc(-c4ccc(F)cc4-c4nncn4C4CC4)cc3C2=O)n1 [Compound 320, 6-(2-(4-Cyclopropyl-4H-1,2,4-triazol-3-yl)-4-fluorophenyl)-2-(4-(((cyclopropyl-methyl)amino)methyl)-6-methylpyridin-2-yl)isoindolin-1-one] yielded an IC50 [1] of less than 0.08 µM and an EC50 [2] of 0.3 to 1 µM.

CCCNCc1cc(C)nc(N2Cc3ccc(-c4ccc(F)cc4-c4nncn4C)cc3C2=O)c1 [Compound 323, 6-(4-Fluoro-2-(4-methyl-4H-1,2,4-triazol-3-yl)phenyl)-2-(6-methyl-4-((propyl-amino)methyl)pyridin-2-yl)isoindolin-1-one] showed an IC50 [1] of less than 0.08 µM and an EC50 [2] of less than 0.3 µM.

Cc1cc(CNCC2CCO2)cc(N2Cc3ccc(-c4ccc(F)cc4-c4nncn4C)cc3C2=O)n1 (stereo not drawn) [Compound 325, 6-(4-Fluoro-2-(4-methyl-4H-1,2,4-triazol-3-yl)phenyl)-2-(6-methyl-4-(((oxetan-2-ylmethyl)amino)methyl)pyridin-2-yl)isoindolin-1-one] showed an IC50 [1] of less than 0.08 µM and an EC50 [2] of 1 to 10 µM.

In the case of Cc1cc(CNCCC(F)(F)F)cc(N2Cc3ccc(-c4ccc(F)cc4-c4nncn4C)cc3C2=O)n1 [Compound 326, 6-(4-Fluoro-2-(4-methyl-4H-1,2,4-triazol-3-yl)phenyl)-2-(6-methyl-4-(((3,3,3-trifluoropropyl)amino)methyl)pyridin-2-yl)isoindolin-1-one], the IC50 [1] is reported as less than 0.08 µM and the EC50 [2] is reported as 1 to 10 µM.

Work on Cc1cc(CNCCCC(F)(F)F)cc(N2Cc3ccc(-c4ccc(F)cc4-c4nncn4C)cc3C2=O)n1 [Compound 328, 6-(4-Fluoro-2-(4-methyl-4H-1,2,4-triazol-3-yl)phenyl)-2-(6-methyl-4-(((4,4,4-trifluorobutyl)amino)methyl)pyridin-2-yl)isoindolin-1-one] yielded an IC50 [1] of less than 0.08 µM and an EC50 [2] of 0.3 to 1 µM.

Cc1cc(CNCC2CCCC2)cc(N2Cc3ccc(-c4ccc(F)cc4-c4nncn4C)cc3C2=O)n1 [Compound 329, 2-(4-(((Cyclopentylmethyl)amino)methyl)-6-methylpyridin-2-yl)-6-(4-fluoro-2-(4-methyl-4H-1,2,4-triazol-3-yl)phenyl)isoindolin-1-one] showed an IC50 [1] of less than 0.08 µM and an EC50 [2] of less than 0.3 µM.

Molecule Cc1nc(N2Cc3ccc(-c4ccc(F)cc4-c4nncn4C)cc3C2=O)cc(CNCC2CC2)c1C(F)(F)F [Compound 337, 2-(4-(((Cyclopropylmethyl)amino)methyl)-6-methyl-5-(trifluoromethyl)-pyridin-2-yl)-6-(4-fluoro-2-(4-methyl-4H-1,2,4-triazol-3-yl)phenyl)isoindolin-1-one] has an IC50 [1] of less than 0.08 µM and an EC50 [2] of 1 to 10 µM.
